How the values were obtained:
[1] = test system: PC-3 human prostate cancer cells; experiment: Prostate cancer bone metastasis model (intratibial inoculation, 5-week study, preventive setting); assay type: in vivo, male athymic nude mice; parameters: Fractures / Osteoblastic lesions: unit not given here; conditions: for Significance (Fractures) / Significance (Osteoblastic lesions): vs control; for Fractures / Osteoblastic lesions: x-ray, qualitative (yes or no)
From the text: (§1) The objective of this study was to test the efficacy of three different doses of the test compound 1 on prostate cancer bone metastases in male athymic nude mice in a 5-week study in preventive setting. The following 5 experimental groups were included in the study:
The vehicle was corn oil. All groups included 15 mice that were 7 weeks of age at the beginning of the study. Based on the body weights the animals were randomized to five groups. On day 0, the animals were given an intratibial inoculation of human prostate cancer cells. Body weights were determined twice a week. The development of osteoblastic and osteolytic lesions were followed by x-ray. The test compound and vehicle were administered by oral gavage twice a day. The animals were sacrificed at day 35. Tissue samples were collected for histology and embedded in paraffin from left and right tibia and femur for possible future histomorphometric analyses. Gross necropsy was performed to all animals at the end of the study, and all macroscopic signs were recorded.
(§2) Test compound 1 (99.85%, specific density: 1.005) was obtained in liquid form. Three 50× stock solutions were prepared in corn oil (75 mg/ml, 150 mg/ml and 225 mg/ml) and stored them in dark at +4° C. The dosing solutions of 1.5, 3.0 and 4.5 mg/ml were prepared from the stock solutions by diluting the stock solutions in corn oil 1:50. The dosing solutions were prepared once a week and stored in dark at +4° C. The dosing volume was 10 ml/kg. The test compound was administered by oral gavage twice a day with dosing intervals of 10+14 hours. The dosings were started at day 1 and performed at the same time every day.
(§3) Zoledronic acid was used as a reference compound. 1001 of Zometa® (Novartis Pharma GmbH, Nürnberg, Germany) 4 mg/5 ml infusion concentrate was diluted in 3.9 ml of sterile saline (0.9% NaCl) to obtain the administration concentration of 0.02 mg/ml. This solution was prepared once during the study and stored at +4° C. The dosing volume was 5 ml/kg, resulting in the dose of 0.1 mg/kg. The reference compound was administered SC twice in the study: at days 1 and 14.
Male athymic nude mice (Hsd: Athymic nude-nu, obtained from Harlan, The Netherlands) and PC-3 human prostate cancer cells (ATCC) were used for this study.
In this model, human prostate cancer cells are inoculated into the left proximal tibia of 5-7 week old male athymic nude mice. This mouse strain is immunodeficient, allowing rapid spreading of the human cancer cells. The bone lesions are mixed, being mainly osteolytic but also containing an osteoblastic component. Within four weeks after the inoculation part of the animals have already developed some bone lesions, that can be visualized by X-ray radiography. At 7 weeks, the bone metastases are clearly visible. The animals are sacrificed at 7-8 weeks after inoculation, and their bones are collected for further histomorphometric analysis.
Male athymic nude mice (Hsd: Athymic nude-nu, obtained from Harlan, The Netherlands) were used for this study. The age of the animals was 7 weeks, and their body weights were approximately 18-25 g at the beginning of the study. The mice were specific pathogen free (SPF) and isolator-reared animals. Correct age and good clinical health were qualifications for the study. The minimum quarantine and acclimatization period for the mice was 7 days. Allocation to groups was performed by randomization procedure based on body weight. The animals were marked with tail and ear marks. The mice were housed in Scantainer®, 5 mice per cage. In case of fighting, some of the animals had to be isolated. For intratibial inoculations the mice were anesthetized with i.p. injections of Xylazin (5-6 mg/kg) and Ketamine (92-109 mg/kg). For x-ray imaging the mice were anesthetized with inhalation of isoflurane. […]

[2] = test system: MDA-MB-231SA-GFP6 human breast cancer cells; experiment: Breast cancer bone metastasis model (intracardiac inoculation, 25-day study, preventive setting); assay type: in vivo
From the text: as §1, with “the exemplary” for “the test”, “1 (Antroquinonol) from Example 1” for “1”, “on breast” for “on prostate”, “in female” for “in male”, “a 25-day” for “a 5-week”
The vehicle was corn oil. All groups included 15 mice that are 5 weeks of age at the beginning of the study. Based on the body weights the animals were randomized to five groups. On day 0, the animals were given intracardiac inoculation of human breast cancer cells. Body weights were determined twice a week. At sacrifice, the osteolytic lesions and whole body tumor burden were quantified by x-ray and fluorescence imaging, respectively. The test compound and vehicle were administered by oral gavage twice a day. Blood samples for analysing TRACP 5b were collected at days 0, 17 and 24. The animals were sacrificed at day 25, or earlier if they became moribund. Tissue samples were collected for histology and embedded in paraffin from left and right tibia and femur for possible future histomorphometric analyses. Gross necropsy was performed to all animals at the end of the study, and all macroscopic signs were recorded.
as §2, with “(99%, 1005 mg/ml)” for “(99.85%, specific density: 1.005)”, “were” for “were started at day 1 and”
as §3, with “100 μl” for “1001”
Female athymic nude mice (Hsd: Athymic nude-nu) were obtained from Harlan Laboratories B.V. (Horst, The Netherlands). MDA-MB-231SA-GFP6 human breast cancer cells were received originally from Prof. Theresa Guise (Indiana University, Indianapolis, Ind., USA) and transfected with pTurboGFP-N vector (Evrogen JSC, Moscow, Russia).
This experiment utilized an animal model that closely resembles the characteristics of breast cancer metastatic disease or condition in humans. This model can be effectively used for testing the effects of cancer drug candidates on the metastasis of breast cancer cells to bone. In this model, human breast cancer cells are inoculated into the left cardiac ventricle of 5 weeks old female athymic nude mice. This mouse strain is immunodeficient, allowing rapid spreading of the human cancer cells. Within two weeks after the inoculation, the animals develop osteolytic bone metastases that can be visualized by X-ray radiography. In addition, soft tissue metastases are observed in approximately 40% of the animals, especially in adrenal glands. At 3 weeks, the bone metastases are clearly visible in X-ray radiographs and the animals have developed cachexia and lost weight substantially. The animals are sacrificed typically at 3-4 weeks after inoculation, and their hindlegs are collected for further histomorphometric analysis.
Female Athymic nude mice (Hsd: Athymic nude-nu, obtained from Harlan, The Netherlands) were used for this study. The age of the animals was 5 weeks, and their body weights were approximately 16-22 g at the beginning of the study. The mice were specific pathogen free (SPF) and isolator-reared animals. […]

[3] = Day 28, 0.1 mg/kg sc days 1 and 14
[4] = Sacrifice, 0.1 mg/kg sc days 1 and 14

For `COC1=C(OC)C(O)C(C/C=C(\C)CC/C=C(\C)CCC=C(C)C)C(C)C1=O` (stereo not drawn) [Compound 1, 4-hydroxy-2,3-dimethoxy-6-methyl-5-(3,7,11-trimethyldodeca-2,6,10-trienyl)cyclohex-2-enone], the “Significance (Fractures)” value ([1]; Day 28, 30 mg/kg/d po) was “* (One asterisk (*) indicates a statistical significance with p-value<0.05)”, the “Significance (Fractures)” value ([1]; Day 28, 60 mg/kg/d po) was “* (One asterisk (*) indicates a statistical significance with p-value<0.05)” and the Fractures ([1]; Day 28, 30 mg/kg/d po) was 0.0. For the same molecule, the Osteoblastic lesions ([1]; Day 28, 30 mg/kg/d po) was 0.0, the Fractures ([1]; Day 28, 60 mg/kg/d po) was 0.0 and the Osteoblastic lesions ([1]; Day 28, 60 mg/kg/d po) was 0.0. For the same molecule, the Fractures ([1]; Day 28, 90 mg/kg/d po) was 36.4, the Osteoblastic lesions ([1]; Day 28, 90 mg/kg/d po) was 9.1 and the “Significance (Fractures)” value ([1]; Sacrifice, 30 mg/kg/d po) was “* (One asterisk (*) indicates a statistical significance with p-value<0.05)”. The “Significance (Fractures)” value ([1]; Sacrifice, 60 mg/kg/d po) was “* (One asterisk (*) indicates a statistical significance with p-value<0.05)”, the “Significance (Osteoblastic lesions)” value ([1]; Sacrifice, 60 mg/kg/d po) was “* (One asterisk (*) indicates a statistical significance with p-value<0.05)” and the Fractures ([1]; Sacrifice, 30 mg/kg/d po) was 21.4. For the same molecule, the Osteoblastic lesions ([1]; Sacrifice, 30 mg/kg/d po) was 35.7, the Fractures ([1]; Sacrifice, 60 mg/kg/d po) was 21.4 and the Osteoblastic lesions ([1]; Sacrifice, 60 mg/kg/d po) was 21.4. For the same molecule, the Fractures ([1]; Sacrifice, 90 mg/kg/d po) was 36.4, the Osteoblastic lesions ([1]; Sacrifice, 90 mg/kg/d po) was 45.5 and the “osteoclast number at tumor-bone interface” value ([1]; all doses) was “no effect”. The total tumor area ([1]; dose 60 mg/kg/d) was “no effect”, the “maximum body weight obtained” value ([1]; mouse, in vivo, 60 mg/kg/day) was “increased” and the Cachectic % ([2]; 30 mg/kg/d po) was 21.4%. The Paraplegic % ([2]; 30 mg/kg/d po) was 57.1%, the Cachectic % ([2]; 60 mg/kg/d po) was 16.7% and the Paraplegic % ([2]; 60 mg/kg/d po) was 8.3%. For the same molecule, the Cachectic % ([2]; 90 mg/kg/d po) was 20%, the Paraplegic % ([2]; 90 mg/kg/d po) was 20.0% and the intraosseous tumor area ([2]; higher doses (60 and 90 mg/kg/d)) was “no effect”. For the same molecule, the “body weight at sacrifice” value ([2]; mouse, in vivo, 90 mg/kg/day) was “increased” and the “maximum weight obtained during the study” value ([2]; mouse, in vivo, 90 mg/kg/day) was “increased”.
`O=P(O)(O)C(O)(Cn1ccnc1)P(=O)(O)O` [Zoledronic acid, reference compound] was tested, and the body weight ([1]; 0.1 mg/kg sc days 1 and 14) was “no effect”, the “Significance (Fractures)” value [1, 3] was “* (One asterisk (*) indicates a statistical significance with p-value<0.05)” and the Fractures [1, 3] was 0.0. The Osteoblastic lesions [1, 3] was 0.0, the “Significance (Fractures)” value [1, 4] was “*** (three asterisks (***) a statistical significance with p-value<0.001)” and the “Significance (Osteoblastic lesions)” value [1, 4] was “*** (three asterisks (***) a statistical significance with p-value<0.001)”. It also gave a Fractures [1, 4] of 0.0, an Osteoblastic lesions [1, 4] of 0.0 and a Cachectic % ([2]; 0.1 mg/kg sc days 1 and 14) of 11.1%. The Paraplegic % ([2]; 0.1 mg/kg sc days 1 and 14) was 22.2%, the body weight ([2]; 0.1 mg/kg sc days 1 and 14) was “no effect” and the intraosseous tumor area ([2]; 0.1 mg/kg sc days 1 and 14) was “no effect”. For the same molecule, the “whole body tumor burden” value ([2]; 0.1 mg/kg sc days 1 and 14) was “no effect”.

— patent US8648117B2, “Methods and compositions for treating cancer metastasis” (Golden Biotechnology Corporation, priority 2012, dated 2014)
